Target: MMP13 (Homo sapiens (Human), UniProt P45452)
Assay: EnzoLyte 520 Generic MMP Assay Kit, 5-FAM/QXL 520 FRET peptide substrate
Assay type: biochemical
Source text: The EnzoLyte™ 520 Generic MMP Assay Kit (AnaSpec Inc.) can detect the activity of several MMPs including MMP-1, 2, 3, 7, 8, 9, 13, and 14. This kit uses a 5-FAM/QXL™ 520 fluorescence resonance energy transfer (FRET) peptide as an MMP substrate. In the intact FRET peptide, the fluorescence of 5-FAM is quenched by QXL™ 520. Upon cleavage into two separate fragments by MMPs, the fluorescence of 5-FAM is recovered, and can be monitored at excitation/emission wavelengths=490 nm/520 nm. The assays are performed in a convenient 96-well or 384-well microplate format.

| Compound | IC50 [nM] |
| --- | --- |
| Cc1noc(-c2cc3cc(-c4nc(C(=O)NCc5cccs5)[nH]c4C)ccc3[nH]2)n1 | 2 |
| Cc1noc(-c2cc3cc(-c4nc(C(=O)NCc5noc(C)n5)[nH]c4C)ccc3[nH]2)n1 | 0.9 |
| Cn1nc(C(=O)NCc2ccc(C(=O)O)cc2)cc1-c1ccc2[nH]c(-c3ccnc(F)c3)cc2c1 | 2 |
| Cc1noc(-c2cc3cc(-c4nc(C(=O)NCc5ccc(C(O)C(F)(F)F)cc5)[nH]c4C)ccc3[nH]2)n1 (stereo not shown) | 18 |
| Cc1noc(-c2cc3cc(-c4nc(C(=O)NCC5CC5)[nH]c4C)ccc3[nH]2)n1 [N-(cyclopropylmethyl)-5-methyl-4-[2-(3-methyl-1,2,4-oxadiazol-5-yl)-1H-indol-5-yl]-1H-imidazole-2-carboxamide] | 8 |
| Cn1nc(C(=O)NCc2ccc(C(=O)O)cc2)cc1-c1ccc2[nH]c(C#N)cc2c1 | 52 |
| Cc1[nH]c(C(=O)NCc2ccncc2)nc1-c1ccc2[nH]c(-c3nc(C(C)C)no3)cc2c1 | 18 |
| Cc1noc(-c2cc3cc(-c4nc(C(=O)NCc5ccno5)[nH]c4C)ccc3[nH]2)n1 [N-(isoxazol-5-ylmethyl)-5-methyl-4-[2-(3-methyl-1,2,4-oxadiazol-5-yl)-1H-indol-5-yl]-1H-imidazole-2-carboxamide] | 0.7 |
| CCNC(=O)c1nc(-c2ccc3[nH]c(-c4nc(C)no4)cc3c2)c(C)[nH]1 | 10 |
| Cc1noc(-c2cc3cc(-c4nc(C(=O)NCc5ccc(=O)[nH]c5)[nH]c4C)ccc3[nH]2)n1 | 0.2 |
| Cc1noc(-c2cc3cc(-c4nc(C(=O)NCc5ccc(C(=O)O)cc5)[nH]c4C)ccc3[nH]2)n1 | 0.2 |
| Cn1nc(C(=O)NCc2ccc(C(=O)O)cc2)cc1-c1ccc2[nH]c(-c3cccnc3)cc2c1 | 3 |
| Cn1nc(C(=O)NCc2ccc(C(=O)O)cc2)cc1-c1ccc2[nH]c(-c3cncnc3)cc2c1 | 5 |
| CCOC(=O)c1cc2cc(-c3cc(C(=O)NCc4ccc(CC(=O)OC)cc4)nn3C)ccc2[nH]1 | 51 |
| CCOC(=O)c1[nH]c2ccc(-c3nc(C(=O)NCc4ccncc4)[nH]c3C)cc2c1F | 7 |
| Cc1noc(-c2cc3cc(-c4nc(C(N)=O)[nH]c4C)ccc3[nH]2)n1 [5-methyl-4-[2-(3-methyl-1,2,4-oxadiazol-5-yl)-1H-indol-5-yl]-1H-imidazole-2-carboxamide] | 10 |
| Cc1noc(-c2cc3cc(-c4cc(C(=O)NCc5ccccc5)nn4C)ccc3[nH]2)n1 [N-benzyl-1-methyl-5-[2-(3-methyl-1,2,4-oxadiazol-5-yl)-1H-indol-5-yl]-1H-pyrazole-3-carboxamide] | 26 |

| Compound | IC50 [nM] |
| --- | --- |
| CCOC(=O)c1cc2cc(-c3cc(C(=O)NCc4ccncc4)ncc3C)ccc2[nH]1 | 155 |
| CCOC(=O)c1cc2cc(-c3nc(C(=O)NCc4ccncc4)[nH]c3C)ccc2[nH]1 | 2 |
| Cc1noc(-c2cc3cc(-c4cc(C(=O)NCc5cscn5)nn4C)ccc3[nH]2)n1 [1-methyl-5-[2-(3-methyl-1,2,4-oxadiazol-5-yl)-1H-indol-5-yl]-N-(1,3-thiazol-4-ylmethyl)-1H-pyrazole-3-carboxamide] | 94 |
| Cc1noc(-c2cc3cc(-c4nc(C(=O)NCc5ccc(F)cc5)[nH]c4C)ccc3[nH]2)n1 | 6 |
| O=C(NCc1ccncc1)c1cc(-c2ccc3[nH]c(-c4ccncc4)cc3c2)ccn1 [4-(2-Pyridin-4-yl-1H-indol-5-yl)-pyridine-2-carboxylic acid (pyridin-4-ylmethyl)-amide] | 62 |
| Cc1noc(-c2cc3cc(-c4nc(C(=O)NCc5ccoc5)[nH]c4C)ccc3[nH]2)n1 | 3 |
| Cc1noc(-c2cc3cc(-c4cc(C(=O)NCc5ccncc5)nn4C)ccc3[nH]2)n1 | 4 |
| Cc1noc(-c2cc3nc(-c4nc(C(=O)NCc5ccncc5)[nH]c4C)ccc3[nH]2)n1 | 20 |
| Cc1noc(-c2cc3cc(-c4nc(C(=O)NCC5(O)CCOCC5)[nH]c4C)ccc3[nH]2)n1 | 6 |
| Cn1nc(C(=O)NCc2ccc(C(=O)O)cc2)cc1-c1ccc2[nH]c(-c3ccncc3)cc2c1 | 0.8 |
| Cc1noc(-c2cc3cc(-c4cc(C(=O)NCc5ccnn5C)nn4C)ccc3[nH]2)n1 [1-methyl-5-[2-(3-methyl-1,2,4-oxadiazol-5-yl)-1H-indol-5-yl]-N-[(1-methyl-1H-pyrazol-5-yl)methyl]-1H-pyrazole-3-carboxamide] | 125 |
| CCOC(=O)c1cc2cc(-c3nc(C(=O)OCC)[nH]c3C)ccc2[nH]1 [5-(2-Ethoxycarbonyl-5-methyl-1H-imidazol-4-yl)-1H-indole-2-carboxylic acid ethyl ester] | 39 |
| CCOC(=O)c1cc2cc(-c3ccnc(C(=O)NCc4ccc(C(=O)O)cc4)c3)ccc2[nH]1 | 0.7 |
| Cc1noc(-c2cc3cc(-c4cc(C(=O)NCc5cnn(C)c5)nn4C)ccc3[nH]2)n1 [1-methyl-5-[2-(3-methyl-1,2,4-oxadiazol-5-yl)-1H-indol-5-yl]-N-[(1-methyl-1H-pyrazol-4-yl)methyl]-1H-pyrazole-3-carboxamide] | 10 |
| Cc1noc(-c2cc3cc(-c4cc(C(=O)NCc5ccno5)nn4C)ccc3[nH]2)n1 [N-(isoxazol-5-ylmethyl)-1-methyl-5-[2-(3-methyl-1,2,4-oxadiazol-5-yl)-1H-indol-5-yl]-1H-pyrazole-3-carboxamide] | 19 |
| CCOC(=O)c1cc2cc(-c3cc(C(=O)NCc4ccncc4)nn3C)ccc2[nH]1 | 97 |
| Cc1noc(-c2cc3cc(-c4nc(C(=O)NCc5ccnc(N)c5)[nH]c4C)ccc3[nH]2)n1 | 1.3 |
